Experimental data reported in paper PMC5513091, “A novel Alzheimer’s disease drug candidate targeting inflammation and fatty acid metabolism” (Alzheimer's Research & Therapy, 2017).

System: plasma metabolites
Experiment: Metabolomic analysis of plasma
Type: in vivo, mice
Description: Metabolomic analyses were conducted at Metabolon (Durham, NC, USA) as described previously. For statistical analyses and data display, any missing values were assumed to be below the limits of detection and imputed with the compound minimum (minimum value imputation). An estimate of the FDR (Q value) was calculated to take into account the multiple comparisons that normally occur in metabolomics-based studies, with Q < 0.05 used as an indication of high confidence in a result. The MetaboAnalyst tool was used to generate heat maps.

[1] = AD mice fed CAD-31 200 ppm 3 months vs AD
[2] = WT control mice fed CAD-31 200 ppm 3 months vs control

Cc1ccc(N(/N=C/c2cccc(OC(F)(F)F)c2)C(=O)C(F)(F)F)c(C)c1 [CAD-31]
1,2-dipalmitoyl-GPC (16:0/16:0) Fold Change AD+31/AD [1]: 1.12 | 1-arachidonoyl-GPC (20:4n6)* Fold Change AD+31/AD [1]: 1.17 | 1-myristoylglycerol (14:0) Fold Change AD+31/AD [1]: 0.94 | 1-oleoylglycerol (18:1) Fold Change AD+31/AD [1]: 1.17 | 1-palmitoyl-2-arachidonoyl-GPC (16:0/20:4n6) Fold Change AD+31/AD [1]: 1.19 | 1-palmitoyl-2-stearoyl-GPC (16:0/18:0) Fold Change AD+31/AD [1]: 1.23 | 1-stearoyl-GPE (18:0) Fold Change AD+31/AD [1]: 1.22 | 2-palmitoylglycerol (16:0) Fold Change AD+31/AD [1]: 1.22 | 3-acetylphenol sulfate Fold Change AD+31/AD [1]: 0.59 | 3-ethylphenylsulfate Fold Change AD+31/AD [1]: 2.39 | 3-hydroxy-3-methylglutarate Fold Change AD+31/AD [1]: 1.53 | 3-hydroxybutyrate (BHBA) Fold Change AD+31/AD [1]: 1.21 | 3-hydroxypyridine sulfate Fold Change AD+31/AD [1]: 1.07 | 3-indoxyl sulfate Fold Change AD+31/AD [1]: 1.15 | 4-hydroxyhippurate Fold Change AD+31/AD [1]: 0.73 | 4-hydroxyphenylpyruvate Fold Change AD+31/AD [1]: 1.05 | 5-hydroxyindoleacetate Fold Change AD+31/AD [1]: 1.01 | 5-oxoproline Fold Change AD+31/AD [1]: 1.02 | 7-ketodeoxycholate Fold Change AD+31/AD [1]: 0.18 | 9,10-DiHOME Fold Change AD+31/AD [1]: 0.99 | 10-heptadecenoate (17:1n7) Fold Change AD+31/AD [1]: 0.84 | 10-nonadecenoate (19:1n9) Fold Change AD+31/AD [1]: 0.87 | 10-undecenoate (11:1n1) Fold Change AD+31/AD [1]: 0.41 | 15-methylpalmitate Fold Change AD+31/AD [1]: 0.68 | 17-methylstearate Fold Change AD+31/AD [1]: 0.84 | N2-acetyllysine Fold Change AD+31/AD [1]: 1.12 | N-acetyl-3-methylhistidine* Fold Change AD+31/AD [1]: 0.86 | N-acetylmethionine Fold Change AD+31/AD [1]: 1.14 | N-acetylphenylalanine Fold Change AD+31/AD [1]: 1.1 | N-acetylserine Fold Change AD+31/AD [1]: 1.11 | N-carbamoylaspartate Fold Change AD+31/AD [1]: 1.97 | N-delta-acetylornithine Fold Change AD+31/AD [1]: 1.22 | N-palmitoyl-sphinganine (d18:0/16:0) Fold Change AD+31/AD [1]: 1.49 | N-stearoyl-sphingosine (d18:1/18:0)* Fold Change AD+31/AD [1]: 1.5 | acetylcarnitine Fold Change AD+31/AD [1]: 0.97 | alpha-tocopherol Fold Change AD+31/AD [1]: 1.29 | arabonate/xylonate Fold Change AD+31/AD [1]: 1.47 | asparagine Fold Change AD+31/AD [1]: 0.97 | beta-muricholate Fold Change AD+31/AD [1]: 0.41 | caffeic acid sulfate Fold Change AD+31/AD [1]: 1.19 | carnosine Fold Change AD+31/AD [1]: 0.68 | chenodeoxycholate Fold Change AD+31/AD [1]: 0.26 | choline phosphate Fold Change AD+31/AD [1]: 1.11 | creatine Fold Change AD+31/AD [1]: 1.02 | dihydroorotate Fold Change AD+31/AD [1]: 1.19 | dopamine sulfate (2) Fold Change AD+31/AD [1]: 2.01 | equol glucuronide Fold Change AD+31/AD [1]: 0.22 | ergothioneine Fold Change AD+31/AD [1]: 0.44 | erythritol Fold Change AD+31/AD [1]: 1.1 | erythronate* Fold Change AD+31/AD [1]: 1.14 | gamma-glutamylglutamate Fold Change AD+31/AD [1]: 0.97 | gamma-glutamylglutamine Fold Change AD+31/AD [1]: 0.99 | gamma-glutamylleucine Fold Change AD+31/AD [1]: 1.02 | gamma-glutamylmethionine Fold Change AD+31/AD [1]: 1.04 | gamma-glutamylphenylalanine Fold Change AD+31/AD [1]: 0.97 | gamma-glutamylthreonine Fold Change AD+31/AD [1]: 1.03 | gamma-glutamyltryptophan Fold Change AD+31/AD [1]: 0.78 | gamma-glutamyltyrosine Fold Change AD+31/AD [1]: 0.92 | glucuronate Fold Change AD+31/AD [1]: 1.18 | glutamate Fold Change AD+31/AD [1]: 0.99 | glutathione, oxidized (GSSG) Fold Change AD+31/AD [1]: 1.46 | glycosyl-N-palmitoyl-sphingosine (d18:1/16:0) Fold Change AD+31/AD [1]: 1.29 | glycosyl-N-stearoyl-sphingosine (d18:1/18:0) Fold Change AD+31/AD [1]: 1.42 | gulonate* Fold Change AD+31/AD [1]: 1.59 | hexanoylglycine Fold Change AD+31/AD [1]: 1.03 | indoleacetylglycine Fold Change AD+31/AD [1]: 0.89 | isobutyrylcarnitine Fold Change AD+31/AD [1]: 2.26 | linoleate (18:2n6) Fold Change AD+31/AD [1]: 0.98 | margarate (17:0) Fold Change AD+31/AD [1]: 0.9 | methionine sulfoxide Fold Change AD+31/AD [1]: 1.26 | methylmalonate (MMA) Fold Change AD+31/AD [1]: 1.15 | o-cresol sulfate Fold Change AD+31/AD [1]: 1.63 | oleoylcarnitine Fold Change AD+31/AD [1]: 0.94 | palmitoleoylcarnitine* Fold Change AD+31/AD [1]: 0.97 | palmitoyl dihydrosphingomyelin (d18:0/16:0)* Fold Change AD+31/AD [1]: 1.32 | palmitoyl sphingomyelin (d18:1/16:0) Fold Change AD+31/AD [1]: 1.22 | palmitoyl-palmitoyl-glycerol (16:0/16:0) [1]* Fold Change AD+31/AD [1]: 1.17 | pentadecanoate (15:0) Fold Change AD+31/AD [1]: 0.95 | phenol sulfate Fold Change AD+31/AD [1]: 1.03 | phenylpropionylglycine Fold Change AD+31/AD [1]: 2.89 | phosphoethanolamine Fold Change AD+31/AD [1]: 1.05 | pyridoxal Fold Change AD+31/AD [1]: 1.22 | pyridoxate Fold Change AD+31/AD [1]: 1.49 | pyruvate Fold Change AD+31/AD [1]: 1.04 | ribonate Fold Change AD+31/AD [1]: 1.53 | sphinganine-1-phosphate Fold Change AD+31/AD [1]: 1.45 | sphingosine Fold Change AD+31/AD [1]: 1.35 | stearidonate (18:4n3) Fold Change AD+31/AD [1]: 0.87 | suberate (octanedioate) Fold Change AD+31/AD [1]: 1.33 | sucrose Fold Change AD+31/AD [1]: 2.83 | tartronate (hydroxymalonate) Fold Change AD+31/AD [1]: 0.99 | taurine Fold Change AD+31/AD [1]: 0.91 | threonine Fold Change AD+31/AD [1]: 1.08 | tryptophan Fold Change AD+31/AD [1]: 0.91 | ursodeoxycholate Fold Change AD+31/AD [1]: 0.23 | 1,2-dipalmitoyl-GPC (16:0/16:0) Fold Change C+31/C [2]: 1.26 | 1-arachidonoyl-GPC (20:4n6)* Fold Change C+31/C [2]: 1.04 | 1-myristoylglycerol (14:0) Fold Change C+31/C [2]: 0.59 | 1-oleoylglycerol (18:1) Fold Change C+31/C [2]: 0.64 | 1-palmitoyl-2-arachidonoyl-GPC (16:0/20:4n6) Fold Change C+31/C [2]: 1.11 | 1-palmitoyl-2-stearoyl-GPC (16:0/18:0) Fold Change C+31/C [2]: 1.1 | 1-stearoyl-GPE (18:0) Fold Change C+31/C [2]: 1.01 | 2-palmitoylglycerol (16:0) Fold Change C+31/C [2]: 0.79 | 3-acetylphenol sulfate Fold Change C+31/C [2]: 0.21 | 3-ethylphenylsulfate Fold Change C+31/C [2]: 2.27 | 3-hydroxy-3-methylglutarate Fold Change C+31/C [2]: 0.99 | 3-hydroxybutyrate (BHBA) Fold Change C+31/C [2]: 1.83 | 3-hydroxypyridine sulfate Fold Change C+31/C [2]: 0.72 | 3-indoxyl sulfate Fold Change C+31/C [2]: 0.63 | 4-hydroxyhippurate Fold Change C+31/C [2]: 0.42 | 4-hydroxyphenylpyruvate Fold Change C+31/C [2]: 1.65 | 5-hydroxyindoleacetate Fold Change C+31/C [2]: 0.83 | 5-oxoproline Fold Change C+31/C [2]: 1.27 | 7-ketodeoxycholate Fold Change C+31/C [2]: 1.33 | 9,10-DiHOME Fold Change C+31/C [2]: 0.65 | 10-heptadecenoate (17:1n7) Fold Change C+31/C [2]: 0.51 | 10-nonadecenoate (19:1n9) Fold Change C+31/C [2]: 0.6 | 10-undecenoate (11:1n1) Fold Change C+31/C [2]: 0.75 | 15-methylpalmitate Fold Change C+31/C [2]: 0.52 | 17-methylstearate Fold Change C+31/C [2]: 0.62 | N2-acetyllysine Fold Change C+31/C [2]: 0.71 | N-acetyl-3-methylhistidine* Fold Change C+31/C [2]: 0.84 | N-acetylmethionine Fold Change C+31/C [2]: 1.6 | N-acetylphenylalanine Fold Change C+31/C [2]: 1.41 | N-acetylserine Fold Change C+31/C [2]: 1.09 | N-carbamoylaspartate Fold Change C+31/C [2]: 0.54 | N-delta-acetylornithine Fold Change C+31/C [2]: 1.42 | N-palmitoyl-sphinganine (d18:0/16:0) Fold Change C+31/C [2]: 1.08 | N-stearoyl-sphingosine (d18:1/18:0)* Fold Change C+31/C [2]: 1.12 | acetylcarnitine Fold Change C+31/C [2]: 1.65 | alpha-tocopherol Fold Change C+31/C [2]: 1.05 | arabonate/xylonate Fold Change C+31/C [2]: 0.83 | asparagine Fold Change C+31/C [2]: 1.48 | beta-muricholate Fold Change C+31/C [2]: 1.78 | caffeic acid sulfate Fold Change C+31/C [2]: 2.12 | carnosine Fold Change C+31/C [2]: 0.62 | chenodeoxycholate Fold Change C+31/C [2]: 0.67 | choline phosphate Fold Change C+31/C [2]: 1.53 | creatine Fold Change C+31/C [2]: 1.23 | dihydroorotate Fold Change C+31/C [2]: 2.98 | dopamine sulfate (2) Fold Change C+31/C [2]: 0.94 | equol glucuronide Fold Change C+31/C [2]: 0.18 | ergothioneine Fold Change C+31/C [2]: 0.68 | erythritol Fold Change C+31/C [2]: 1.06 | erythronate* Fold Change C+31/C [2]: 1.02 | gamma-glutamylglutamate Fold Change C+31/C [2]: 2.69 | gamma-glutamylglutamine Fold Change C+31/C [2]: 1.94 | gamma-glutamylleucine Fold Change C+31/C [2]: 1.86 | gamma-glutamylmethionine Fold Change C+31/C [2]: 2.24 | gamma-glutamylphenylalanine Fold Change C+31/C [2]: 1.84 | gamma-glutamylthreonine Fold Change C+31/C [2]: 2.07 | gamma-glutamyltryptophan Fold Change C+31/C [2]: 1.81 | gamma-glutamyltyrosine Fold Change C+31/C [2]: 2.33 | glucuronate Fold Change C+31/C [2]: 1.04 | glutamate Fold Change C+31/C [2]: 1.71 | glutathione, oxidized (GSSG) Fold Change C+31/C [2]: 2.09 | glycosyl-N-palmitoyl-sphingosine (d18:1/16:0) Fold Change C+31/C [2]: 1.25 | glycosyl-N-stearoyl-sphingosine (d18:1/18:0) Fold Change C+31/C [2]: 0.76 | gulonate* Fold Change C+31/C [2]: 1.01 | hexanoylglycine Fold Change C+31/C [2]: 2.77 | indoleacetylglycine Fold Change C+31/C [2]: 0.57 | isobutyrylcarnitine Fold Change C+31/C [2]: 5.46 | linoleate (18:2n6) Fold Change C+31/C [2]: 0.67 | margarate (17:0) Fold Change C+31/C [2]: 0.6 | methionine sulfoxide Fold Change C+31/C [2]: 1.52 | methylmalonate (MMA) Fold Change C+31/C [2]: 0.87 | o-cresol sulfate Fold Change C+31/C [2]: 0.93 | oleoylcarnitine Fold Change C+31/C [2]: 1.42 | palmitoleoylcarnitine* Fold Change C+31/C [2]: 1.81 | palmitoyl dihydrosphingomyelin (d18:0/16:0)* Fold Change C+31/C [2]: 1.09 | palmitoyl sphingomyelin (d18:1/16:0) Fold Change C+31/C [2]: 1.05 | palmitoyl-palmitoyl-glycerol (16:0/16:0) [1]* Fold Change C+31/C [2]: 0.51 | pentadecanoate (15:0) Fold Change C+31/C [2]: 0.71 | phenol sulfate Fold Change C+31/C [2]: 0.59 | phenylpropionylglycine Fold Change C+31/C [2]: 3.88 | phosphoethanolamine Fold Change C+31/C [2]: 1.64 | pyridoxal Fold Change C+31/C [2]: 1.54 | pyridoxate Fold Change C+31/C [2]: 1.33 | pyruvate Fold Change C+31/C [2]: 1.2 | ribonate Fold Change C+31/C [2]: 1.07 | sphinganine-1-phosphate Fold Change C+31/C [2]: 2.52 | sphingosine Fold Change C+31/C [2]: 1.14 | stearidonate (18:4n3) Fold Change C+31/C [2]: 0.65 | suberate (octanedioate) Fold Change C+31/C [2]: 1.17 | sucrose Fold Change C+31/C [2]: 2.7 | tartronate (hydroxymalonate) Fold Change C+31/C [2]: 1.47 | taurine Fold Change C+31/C [2]: 1.26 | threonine Fold Change C+31/C [2]: 1.42 | tryptophan Fold Change C+31/C [2]: 1.12 | ursodeoxycholate Fold Change C+31/C [2]: 0.49
